Experimental data: patent publication US9062088B2, “CDK-inhibiting pyrrolopyrimidine carboxamide derivative or pharmaceutically acceptable salt thereof, and pharmaceutical composition containing the same as active ingredient for preventing or treating hepatocellular carcinoma” (SNU R&DB Foundation, priority 2010, dated 2015)

Columns and labels:
[1] = system: caspase-3 activity in SNU-354 cells; test: Measurement of caspase-3 activity (Experimental Example 4); assay type: cell-based, human; set-up: unit not given here
Method: SNU-354 cells treated with the compounds of Example 1˜Example 6 were lysed with lysis buffer (0.5% triton X-100, 20 mM Tris-HCl (pH 7.5), 2 mM magnesium chloride, 1 mM DTT, 1 mM EGTA, 50 mM β-glycerophosphate, 25 mM sodium fluoride, 1 mM Na3VO4, 2 μg/mL leupeptin, 2 μg/mL pepstatin A, 100 μg/mL phenylmethylsulfonyl fluoride, 1 μg/mL antipain). The protease analysis buffer necessary for the reaction (20 mM HEPES (pH 7.5), 10% glycerol, 2 mM DTT) was mixed with 20 μM Ac-DEVD-AMC (BD Biosciences, CA, USA) and cell lysates, followed by reaction at 37° C. for 1 hour. Upon completion of the reaction, caspase-3 activity was measured at 380 nm of excitation and 460 nm of emission with spectrofluorometer (TECAN, Switzerland) and the results are shown in FIG. 25 and Table 12.

SNU-354 cells [2] = test: MTT assay, cell viability; assay type: cell-based; conditions: Homo sapiens, SNU-354, read-out: Cell viability (%)
Method: Cell viability was measured by MTT assay. SNU-354 cells in the log phase of cell growth curve were distributed in a 24-well plate at the density of 2×10^4 cells/well. […] After allowing enough time for reaction, MTT reagent (MTT dissolved in PBS at the concentration of 5 mg/mL) (Sigma-Aldrich, USA) was added to each well, followed by reaction at 37° C. for 3 hours. Then, the supernatant was eliminated and the precipitated formazan crystals were dissolved in dimethyl sulfoxide, followed by measurement of absorbance with ELISA plate reader.

SNU-354 cells [3] = test: Western blotting of PARP cleavage; assay type: cell-based, human; conditions: FIG. 17
Method: (§1) After treating the compound of Example 2 to SNU-354 cells, cell pellet was lysed with lysis buffer (0.5% triton X-100, 20 mM Tris-HCl (pH 7.5), 2 mM magnesium chloride, 1 mM DTT, 1 mM EGTA, 50 mM β-glycerophosphate, 25 mM sodium fluoride, 1 mM Na3VO4, 2 μg/mL leupeptin, 2 μg/mL pepstatin A, 100 μg/mL phenylmethylsulfonyl fluoride, and 1 μg/mL antipain) at 4° C. for 1 hour, followed by quantification of protein. A proper amount of protein was electrophoresed on SDS-PAGE gel and then transferred onto polyvinylidene difluoride membrane (Millipore Co., Bedford, Mass.). The membrane was reacted in inhibiting solution (PBS, 5% skim milk, 0.1% tween-20) at room temperature for 1˜2 hours. The membrane was reacted with the primary antibody (goat anti-phospho-Rb, rabbit anti-nucleolin) diluted in the inhibiting solution (1:1000). Then, the membrane was washed with PBST, followed by reaction with the proper secondary antibody (horseradish peroxidase (HRP) conjugated) at room temperature for 1 hour.
Experiment was performed by the same manner as described in step 2 of Experimental Example 2 except that rabbit anti-PARP was used as the primary antibody and the results are shown in FIG. 17.

Cdk9/cyclin T1 = target: T1, Cdk9/cyclin T1 (Homo sapiens, UniProt P50750); test: In vitro kinase assay of Cdk9, RNA Pol II-CTD-GST substrate; assay type: biochemical; conditions: 0 nM = 100
T1 construct: purchased Upstate
T1 sequence (P50750 whole entry): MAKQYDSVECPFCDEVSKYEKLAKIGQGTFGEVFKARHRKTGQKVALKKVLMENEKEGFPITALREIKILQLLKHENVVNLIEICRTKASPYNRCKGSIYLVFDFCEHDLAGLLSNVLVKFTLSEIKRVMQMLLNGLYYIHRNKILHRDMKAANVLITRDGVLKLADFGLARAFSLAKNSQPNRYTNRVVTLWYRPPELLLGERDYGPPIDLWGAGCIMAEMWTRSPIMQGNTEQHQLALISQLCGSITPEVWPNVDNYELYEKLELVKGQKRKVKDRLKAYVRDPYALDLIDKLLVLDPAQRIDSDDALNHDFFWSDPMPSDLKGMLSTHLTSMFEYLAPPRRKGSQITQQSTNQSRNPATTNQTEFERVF
T1 sequence (O60563 whole entry partner): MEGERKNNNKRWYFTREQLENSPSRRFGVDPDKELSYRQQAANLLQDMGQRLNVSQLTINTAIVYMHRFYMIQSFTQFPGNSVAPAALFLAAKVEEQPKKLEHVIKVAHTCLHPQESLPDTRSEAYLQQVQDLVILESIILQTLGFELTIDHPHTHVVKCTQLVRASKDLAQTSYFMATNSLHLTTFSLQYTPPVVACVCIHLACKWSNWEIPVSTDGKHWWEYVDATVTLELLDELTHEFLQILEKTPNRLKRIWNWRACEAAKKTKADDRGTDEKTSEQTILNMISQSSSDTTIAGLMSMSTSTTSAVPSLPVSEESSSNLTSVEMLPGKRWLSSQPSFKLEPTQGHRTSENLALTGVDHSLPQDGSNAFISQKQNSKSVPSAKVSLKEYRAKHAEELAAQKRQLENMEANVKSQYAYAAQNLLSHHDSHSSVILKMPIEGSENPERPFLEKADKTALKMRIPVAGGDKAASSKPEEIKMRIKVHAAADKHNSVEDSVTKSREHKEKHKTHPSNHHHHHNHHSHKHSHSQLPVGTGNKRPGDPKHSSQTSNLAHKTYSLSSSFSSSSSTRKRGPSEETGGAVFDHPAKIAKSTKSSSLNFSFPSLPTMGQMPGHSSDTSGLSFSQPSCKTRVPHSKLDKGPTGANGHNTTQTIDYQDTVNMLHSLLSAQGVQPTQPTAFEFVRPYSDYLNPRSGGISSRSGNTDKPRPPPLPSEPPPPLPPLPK
Method: To kinase assay buffer were added RNA Pol II-CTD-GST protein (Jena Bioscience, Germany) as a substrate, Cdk9/cyclin T1 or Cdk7/cyclin H/MAT1 recombinant protein (Upstate) as an enzyme, 2.5 μCi [γ-32P]ATP, and 100 μM MgAc/ATP. The total reaction volume was adjusted to 50 μl. Kinase assay reaction was induced at 30° C. for 20 minutes. Upon completion of the reaction, electrophoresis was performed on 8% SDS-polyacrylamide gel. The activities of Cdk7 and Cdk9 over the concentrations of the compounds of Example 1 and Example 2 were confirmed by autoradiography and the results are shown in FIG. 5˜FIG. 8 and Table 3.
The intensity of bands was analyzed by densitometry (GS-800, Bio-Rad).

SNU-354 cells [4] = test: FACS analysis of sub G1 ratio (Experimental Example 1-6-3); assay type: cell-based, human
Method: The cells were collected and washed with cold PBS, followed by reaction in 500 μl of cold 70% ethanol at 4° C. for overnight to fix the cells. The cells were washed with 500 μl of PBS three times, followed by reaction with 500 μl of PBS containing 50 μg/mL propidium iodide (P1) and 50 μl of 1 mg/mL RNAse A at room temperature for 30 minutes in the darkness. Fluorescence of the P1 stained cell was measured by using caliber flow cytometer and cell quest program (Becton Dickinson Immunocytometry Systems, CA, USA). Sub G1 ratio changes of HCC SNU-354 cells induced by the compounds of Examples 1 and 2 were measured by FACS analysis. The results are shown in FIG. 19, FIG. 20, Table 9 and Table 10.

Cdk9 = test: Western blotting of Cdk9 activity (phospho RNA Pol II Ser 2); assay type: cell-based, human; conditions: 0 nM = 100
Method: as §1
Experiment was performed by the same manner as described in step 2 of Experimental Example 1 except that rabbit anti-phospho RNA Pol II (Ser 5) and rabbit anti-phospho RNA Pol II (Ser 2) (from Bethyl, TX, USA) were used as primary antibodies. The results are shown FIG. 9˜FIG. 12, and Table 4 and Table 5.

SNU-354 cells [5] = test: 3H-thymidine incorporation assay; assay type: cell-based, human; conditions: 18˜24 hours
Method: SNU-354 cells were distributed in a 6-well plate at the density of 5×10^4 cells/well, followed by culture in FBS-free medium for 24 hours. 24 hours later, the medium was replaced with the fresh one supplemented with FBS, the compounds of Examples 1 and 2 at different concentrations and 1 μCi/mL [^3H]dT (GE Healthcare, UK). 18˜24 hours later, the cells were washed with cold PBS and then fixed with cold 5% trichloroacetic acid. DNA was lysed in […] sodium hydroxide at 37° C. for 1 hour. Then, [^3H]dT incorporated during intracellular DNA synthesis was measured by LSC (liquid scintillation counting). Intracellular DNA synthesis measured above was used as index for the evaluation of cell viability.

`NC(=O)c1c(Br)nc2n([C@H]3O[C@@H](CO)[C@H](O)[C@H]3O)cnc(N)c1-2` [Example 1, 4-amino-6-bromo-1-((2S,3R,4R,5S)-3,4-dihydroxy-5-(hydroxymethyl)-tetrahydrofuran-2-yl)-1H-pyrrolo[2,3-d]pyrimidine-5-carboxamide] showed a Caspase-3 activity ([1]; 5 μM) of 8.4, a Caspase-3 activity ([1]; 10 μM) of 8.1 and a viability at 0.5 µM (SNU-354 cells [2]) of 96.4%. For the same compound, the viability at 1 µM (SNU-354 cells [2]) was 84.3%, the viability at 2 µM (SNU-354 cells [2]) was 74% and the viability at 5 µM (SNU-354 cells [2]) was 68%. For the same compound, the viability at 10 µM (SNU-354 cells [2]) was 55.6%, the viability at 50 µM (SNU-354 cells [2]) was 36.6% and the “PARP cleavage, time from the treatment after which it was caused” value (SNU-354 cells [3]) was 12 h. It also gave a Cdk9 activity (Cdk9/cyclin T1; 10 nM) of 15.8%, a Cdk9 activity (Cdk9/cyclin T1; 100 nM) of 1.0% and a Cdk9 activity (Cdk9/cyclin T1; 1000 nM) of 0.1%. For the same compound, the “sub G1 ratio (%)” value (SNU-354 cells [4]; 0.1 μM, 24 hours, 0 μM = 3.0) was 2.7%, the “sub G1 ratio (%)” value (SNU-354 cells [4]; 0.5 μM, 24 hours, 0 μM = 3.0) was 3.2% and the “sub G1 ratio (%)” value (SNU-354 cells [4]; 1 μM, 24 hours, 0 μM = 3.0) was 3.5%. The “sub G1 ratio (%)” value (SNU-354 cells [4]; 5 μM, 24 hours, 0 μM = 3.0) was 28.1%, the “sub G1 ratio (%)” value (SNU-354 cells [4]; 10 μM, 24 hours, 0 μM = 3.0) was 64.2% and the “sub G1 ratio (%)” value (SNU-354 cells [4]; 50 μM, 24 hours, 0 μM = 3.0) was 71.1%. The “sub G1 ratio (%)” value (SNU-354 cells [4]; 50 μM, time 6 h, 0 h = 10.3) was 29.1%, the “sub G1 ratio (%)” value (SNU-354 cells [4]; 50 μM, time 12 h, 0 h = 10.3) was 51.8% and the “sub G1 ratio (%)” value (SNU-354 cells [4]; 50 μM, time 18 h, 0 h = 10.3) was 71.7%. The “sub G1 ratio (%)” value (SNU-354 cells [4]; 50 μM, time 24 h, 0 h = 10.3) was 78.1%, the “concentration at which sub G1 ratio was rapidly increased” value (SNU-354 cells [4]; 24 hours) was 5 µM and the Cdk9 activity (Cdk9; 0.1 nM) was 90.4%. The Cdk9 activity (Cdk9; 0.5 nM) was 87.0%, the Cdk9 activity (Cdk9; 1 nM) was 46.1% and the Cdk9 activity (Cdk9; 5 nM) was 1.9%. For the same compound, the Cdk9 activity (Cdk9; 10 nM) was 1.3%, the Cdk9 activity (Cdk9; 50 nM) was 0.2% and the “^3H-thymidine incorporation (%)” value (SNU-354 cells [5]; 5.0 μM) was 84.0%. The “^3H-thymidine incorporation (%)” value (SNU-354 cells [5]; 10.0 μM) was 35.2% and the “^3H-thymidine incorporation (%)” value (SNU-354 cells [5]; 50.0 μM) was 15.8%.
Compound `CC(C)C(=O)OC[C@@H]1O[C@H](n2cnc(N)c3c(C(N)=O)c(Br)nc2-3)[C@H](O)[C@H]1O` [Example 2, ((2S,3R,4R,5S)-5-(4-amino-6-bromo-5-carbamoyl-1H-pyrrolo[2,3-d]pyrimidin-1-yl)-3,4-dihydroxy-tetrahydrofuran-2-yl)methyl isobutyrate] has a Caspase-3 activity ([1]; 5 μM) of 9.7, a Caspase-3 activity ([1]; 10 μM) of 11.0 and a viability at 0.5 µM (SNU-354 cells [2]) of 86.3%. It also gave a viability at 1 µM (SNU-354 cells [2]) of 75.5%, a viability at 2 µM (SNU-354 cells [2]) of 64.7% and a viability at 5 µM (SNU-354 cells [2]) of 47.6%. The viability at 10 µM (SNU-354 cells [2]) was 35.4%, the viability at 50 µM (SNU-354 cells [2]) was 16.8% and the “PARP cleavage, time from the treatment after which it was caused” value (SNU-354 cells [3]) was 6 h. The Cdk9 activity (Cdk9/cyclin T1; 10 nM) was 95.4%, the Cdk9 activity (Cdk9/cyclin T1; 100 nM) was 40.5% and the Cdk9 activity (Cdk9/cyclin T1; 1000 nM) was 3.3%. The “sub G1 ratio (%)” value (SNU-354 cells [4]; 0.1 μM, 24 hours, 0 μM = 3.0) was 3.8%, the “sub G1 ratio (%)” value (SNU-354 cells [4]; 0.5 μM, 24 hours, 0 μM = 3.0) was 39.6% and the “sub G1 ratio (%)” value (SNU-354 cells [4]; 1 μM, 24 hours, 0 μM = 3.0) was 52.0%. For the same compound, the “sub G1 ratio (%)” value (SNU-354 cells [4]; 5 μM, 24 hours, 0 μM = 3.0) was 69.8%, the “sub G1 ratio (%)” value (SNU-354 cells [4]; 10 μM, 24 hours, 0 μM = 3.0) was 72.6% and the “sub G1 ratio (%)” value (SNU-354 cells [4]; 50 μM, 24 hours, 0 μM = 3.0) was 73.1%. For the same compound, the “sub G1 ratio (%)” value (SNU-354 cells [4]; 50 μM, time 6 h, 0 h = 10.3) was 51.6%, the “sub G1 ratio (%)” value (SNU-354 cells [4]; 50 μM, time 12 h, 0 h = 10.3) was 67.6% and the “sub G1 ratio (%)” value (SNU-354 cells [4]; 50 μM, time 18 h, 0 h = 10.3) was 72.3%. The “sub G1 ratio (%)” value (SNU-354 cells [4]; 50 μM, time 24 h, 0 h = 10.3) was 81.2%, the “concentration at which sub G1 ratio was rapidly increased” value (SNU-354 cells [4]; 24 hours) was 0.5 µM and the Cdk9 activity (Cdk9; 0.1 nM) was 81.5%. The Cdk9 activity (Cdk9; 0.5 nM) was 27.3%, the Cdk9 activity (Cdk9; 1 nM) was 11% and the Cdk9 activity (Cdk9; 5 nM) was 2.2%. The Cdk9 activity (Cdk9; 10 nM) was 1.1%, the Cdk9 activity (Cdk9; 50 nM) was 0.7% and the “^3H-thymidine incorporation (%)” value (SNU-354 cells [5]; 5.0 μM) was 50.7%. For the same compound, the “^3H-thymidine incorporation (%)” value (SNU-354 cells [5]; 10.0 μM) was 20.4% and the “^3H-thymidine incorporation (%)” value (SNU-354 cells [5]; 50.0 μM) was 8%.
